Test results published in patent US20250263370A1 (Tay Therapeutics Limited, priority 2022, published 2025).
“And” between values parts separate entries of the source, which are not always exact repeats. Equal entries are not always repeated. “Also recorded” adds a separate entry of the source.

Tested on: collagen-induced arthritis
Experiment: Collagen-induced arthritis (CIA) model in rats: body weight, paw volume, clinical scores, clinical observations; on Average detailed clinical score, left hind limb: key of the grades not given here; on Average detailed clinical score, right hind limb: key of the grades not given here; on Detailed Clinical Scores, left forelimb: key of the grades not given here; on Detailed Clinical Scores, left hind limb: key of the grades not given here; on Detailed Clinical Scores, right forelimb: key of the grades not given here; on Detailed Clinical Scores, right hind limb: key of the grades not given here; on Detailed Clinical Scores, score: key of the grades not given here; on Mean overall clinical score ± SD: key of the grades not given here; on Overall clinical score: key of the grades not given here
Settings: for Mean animal paw volume ± SD: group mean; for Overall clinical score: individual animals #1-8; for Detailed Clinical Scores, left forelimb / Detailed Clinical Scores, left hind limb / Detailed Clinical Scores, right forelimb / Detailed Clinical Scores, right hind limb / Detailed Clinical Scores, score: individual animals ID 1-8

CNC(=O)c1[nH]c(C(=O)NC2CCC2)cc1O[C@@H](C)c1ccccc1 (stereo in doubt) [Example 101, N^5-cyclobutyl-N^2-methyl-3-(1-phenylethoxy)-1H-pyrrole-2,5-dicarboxamide]
Animal paw volume Day 0 L (CIA rats, 30 mg/kg, Day 0, left paw, individual animals): 1.33 mL (2×) and 1.32 mL (3×) and 1.31 mL and 1.30 mL and 1.34 mL | Average animal paw volume percent change (CIA rats, 30 mg/kg, Day 0, right hind paw (R)): 0.00% | Animal paw volume Day 0 R (CIA rats, 30 mg/kg, Day 0, right paw, individual animals): 1.34 mL (2×) and 1.31 mL (2×) and 1.33 mL and 1.30 mL and 1.32 mL (2×) | Average animal paw volume percent change (CIA rats, 30 mg/kg, Day 6, left hind paw (L)): 0.76% | Animal paw volume Day 6 L (CIA rats, 30 mg/kg, Day 6, left paw, individual animals): 1.35 mL and 1.33 mL (3×) and 1.32 mL (3×) and 1.34 mL | Average animal paw volume percent change (CIA rats, 30 mg/kg, Day 6, right hind paw (R)): 0.75% | Animal paw volume Day 6 R (CIA rats, 30 mg/kg, Day 6, right paw, individual animals): 1.36 mL and 1.32 mL (2×) and 1.31 mL and 1.34 mL (2×) and 1.33 mL (2×) | Average animal paw volume percent change (CIA rats, 30 mg/kg, Day 12, left hind paw (L)): 1.33% | Animal paw volume Day 12 L (CIA rats, 30 mg/kg, Day 12, left paw, individual animals): 1.36 mL (2×) and 1.34 mL (2×) and 1.31 mL and 1.33 mL and 1.32 mL and 1.35 mL | Average animal paw volume percent change (CIA rats, 30 mg/kg, Day 12, right hind paw (R)): 2.87% | Animal paw volume Day 12 R (CIA rats, 30 mg/kg, Day 12, right paw, individual animals): 1.50 mL and 1.36 mL and 1.33 mL (4×) and 1.34 mL and 1.35 mL | Average animal paw volume percent change (CIA rats, 30 mg/kg, Day 13, left hind paw (L)): 2.76% | Animal paw volume Day 13 L (CIA rats, 30 mg/kg, Day 13, left paw, individual animals): 1.40 mL and 1.36 mL (2×) and 1.33 mL and 1.34 mL (2×) and 1.38 mL and 1.35 mL | Average animal paw volume percent change (CIA rats, 30 mg/kg, Day 13, right hind paw (R)): 4.15% | Animal paw volume Day 13 R (CIA rats, 30 mg/kg, Day 13, right paw, individual animals): 1.54 mL and 1.38 mL and 1.34 mL (2×) and 1.36 mL (3×) and 1.33 mL | Average animal paw volume percent change (CIA rats, 30 mg/kg, Day 14, left hind paw (L)): 2.39% | Animal paw volume Day 14 L (CIA rats, 30 mg/kg, Day 14, left paw, individual animals): 1.40 mL and 1.35 mL (2×) and 1.32 mL and 1.37 mL (2×) and 1.36 mL and 1.30 mL | Average animal paw volume percent change (CIA rats, 30 mg/kg, Day 14, right hind paw (R)): 3.83% | Animal paw volume Day 14 R (CIA rats, 30 mg/kg, Day 14, right paw, individual animals): 1.53 mL and 1.37 mL and 1.35 mL (2×) and 1.36 mL (3×) and 1.28 mL | Average animal paw volume percent change (CIA rats, 30 mg/kg, Day 15, left hind paw (L)): 10.45% | Animal paw volume Day 15 L (CIA rats, 30 mg/kg, Day 15, left paw, individual animals): 1.46 mL and 1.79 mL and 1.57 mL and 1.38 mL (2×) and 1.34 mL and 1.44 mL and 1.31 mL | Average animal paw volume percent change (CIA rats, 30 mg/kg, Day 15, right hind paw (R)): 12.13% | Animal paw volume Day 15 R (CIA rats, 30 mg/kg, Day 15, right paw, individual animals): 1.52 mL and 1.37 mL and 1.68 mL and 1.38 mL and 1.49 mL and 1.36 mL and 1.73 mL and 1.30 mL | Average animal paw volume percent change (CIA rats, 30 mg/kg, Day 18, left hind paw (L)): 29.38% | Animal paw volume Day 18 L (CIA rats, 30 mg/kg, Day 18, left paw, individual animals): 1.46 mL and 2.05 mL and 1.90 mL and 1.47 mL (2×) and 1.68 mL and 1.93 mL and 1.70 mL | Average animal paw volume percent change (CIA rats, 30 mg/kg, Day 18, right hind paw (R)): 23.54% | Animal paw volume Day 18 R (CIA rats, 30 mg/kg, Day 18, right paw, individual animals): 1.51 mL and 1.87 mL and 1.86 mL and 1.37 mL and 1.48 mL and 1.32 mL and 1.95 mL and 1.68 mL | Average animal paw volume percent change (CIA rats, 30 mg/kg, Day 19, left hind paw (L)): 33.52% | Animal paw volume Day 19 L (CIA rats, 30 mg/kg, Day 19, left paw, individual animals): 1.42 mL and 2.04 mL and 2.06 mL and 1.56 mL and 1.55 mL and 1.85 mL and 1.94 mL and 1.67 mL | Average animal paw volume percent change (CIA rats, 30 mg/kg, Day 19, right hind paw (R)): 32.36% | Animal paw volume Day 19 R (CIA rats, 30 mg/kg, Day 19, right paw, individual animals): 1.44 mL and 1.96 mL and 2.14 mL and 1.39 mL and 1.48 mL and 1.83 mL and 2.04 mL and 1.69 mL | Average animal paw volume percent change (CIA rats, 30 mg/kg, Day 21, left hind paw (L)): 37.92% | Animal paw volume Day 21 L (CIA rats, 30 mg/kg, Day 21, left paw, individual animals): 1.43 mL and 2.08 mL and 2.11 mL and 1.54 mL (2×) and 2.06 mL and 2.13 mL and 1.67 mL | Average animal paw volume percent change (CIA rats, 30 mg/kg, Day 21, right hind paw (R)): 36.08% | Animal paw volume Day 21 R (CIA rats, 30 mg/kg, Day 21, right paw, individual animals): 1.43 mL and 2.10 mL and 2.16 mL and 1.40 mL and 1.47 mL and 2.00 mL and 2.12 mL and 1.67 mL | overall effect on joint inflammation and clinical symptoms of CIA (CIA rats, 3, 10 and 30 mg/kg twice daily P.O. (groups 5-7)): ameliorated joint inflammation in a dose-dependent manner; also recorded: lower clinical scores; also recorded: dose-dependent effect in the amelioration of clinical symptoms associated with CIA; also recorded: function in a dose-dependent manner to limit and/or reduce the severity of CIA-related symptoms | Mean animal paw volume ± SD (Day 0, L paw, 3 mg/kg): 1.33 mL | Mean animal paw volume ± SD (Day 0, L paw, 10 mg/kg): 1.31 mL | Mean animal paw volume ± SD (Day 0, L paw, 30 mg/kg): 1.32 mL | Mean animal paw volume ± SD (Day 0, R paw, 3 mg/kg): 1.33 mL | Mean animal paw volume ± SD (Day 0, R paw, 10 mg/kg): 1.31 mL | Mean animal paw volume ± SD (Day 0, R paw, 30 mg/kg): 1.32 mL | Average detailed clinical score, left forelimb (Day 0, CIA rats, 3 mg/kg): 0.00 | Average detailed clinical score, left hind limb (Day 0, CIA rats, 3 mg/kg): 0.00 | Average detailed clinical score, right forelimb (Day 0, CIA rats, 3 mg/kg): 0.00 | Average detailed clinical score, right hind limb (Day 0, CIA rats, 3 mg/kg): 0.00 | Average detailed clinical score, score (Day 0, CIA rats, 3 mg/kg): 0.00 | Mean overall clinical score ± SD (Day 0, CIA rats, 3 mg/kg): 0 ± 0 | Overall clinical score (Day 0, CIA rats, 3 mg/kg): 0 | Average detailed clinical score, left forelimb (Day 0, CIA rats, 10 mg/kg): 0.00 | Average detailed clinical score, left hind limb (Day 0, CIA rats, 10 mg/kg): 0.00 | Average detailed clinical score, right forelimb (Day 0, CIA rats, 10 mg/kg): 0.00 | Average detailed clinical score, right hind limb (Day 0, CIA rats, 10 mg/kg): 0.00 | Average detailed clinical score, score (Day 0, CIA rats, 10 mg/kg): 0.00 | Mean overall clinical score ± SD (Day 0, CIA rats, 10 mg/kg): 0 ± 0 | Overall clinical score (Day 0, CIA rats, 10 mg/kg): 0 | Average detailed clinical score, left forelimb (Day 0, CIA rats, 30 mg/kg): 0.00 | Average detailed clinical score, left hind limb (Day 0, CIA rats, 30 mg/kg): 0.00 | Average detailed clinical score, right forelimb (Day 0, CIA rats, 30 mg/kg): 0.00 | Average detailed clinical score, right hind limb (Day 0, CIA rats, 30 mg/kg): 0.00 | Average detailed clinical score, score (Day 0, CIA rats, 30 mg/kg): 0.00 | Mean overall clinical score ± SD (Day 0, CIA rats, 30 mg/kg): 0 ± 0 | Mean animal paw volume ± SD (Day 6, L paw, 3 mg/kg): 1.34 mL | Mean animal paw volume ± SD (Day 6, L paw, 10 mg/kg): 1.32 mL | Mean animal paw volume ± SD (Day 6, L paw, 30 mg/kg): 1.33 mL | Mean animal paw volume ± SD (Day 6, R paw, 3 mg/kg): 1.35 mL | Mean animal paw volume ± SD (Day 6, R paw, 10 mg/kg): 1.32 mL | Mean animal paw volume ± SD (Day 6, R paw, 30 mg/kg): 1.33 mL | Average detailed clinical score, left forelimb (Day 6, CIA rats, 3 mg/kg): 0.00 | Average detailed clinical score, left hind limb (Day 6, CIA rats, 3 mg/kg): 0.00 | Average detailed clinical score, right forelimb (Day 6, CIA rats, 3 mg/kg): 0.00 | Average detailed clinical score, right hind limb (Day 6, CIA rats, 3 mg/kg): 0.00 | Average detailed clinical score, score (Day 6, CIA rats, 3 mg/kg): 0.00 | Mean overall clinical score ± SD (Day 6, CIA rats, 3 mg/kg): 0 ± 0 | Overall clinical score (Day 6, CIA rats, 3 mg/kg): 0 | Average detailed clinical score, left forelimb (Day 6, CIA rats, 10 mg/kg): 0.00 | Average detailed clinical score, left hind limb (Day 6, CIA rats, 10 mg/kg): 0.00 | Average detailed clinical score, right forelimb (Day 6, CIA rats, 10 mg/kg): 0.00 | Average detailed clinical score, right hind limb (Day 6, CIA rats, 10 mg/kg): 0.00 | Average detailed clinical score, score (Day 6, CIA rats, 10 mg/kg): 0.00 | Mean overall clinical score ± SD (Day 6, CIA rats, 10 mg/kg): 0 ± 0 | Overall clinical score (Day 6, CIA rats, 10 mg/kg): 0 | Average detailed clinical score, left forelimb (Day 6, CIA rats, 30 mg/kg): 0.00 | Average detailed clinical score, left hind limb (Day 6, CIA rats, 30 mg/kg): 0.00 | Average detailed clinical score, right forelimb (Day 6, CIA rats, 30 mg/kg): 0.00 | Average detailed clinical score, right hind limb (Day 6, CIA rats, 30 mg/kg): 0.00 | Average detailed clinical score, score (Day 6, CIA rats, 30 mg/kg): 0.00 | Mean overall clinical score ± SD (Day 6, CIA rats, 30 mg/kg): 0 ± 0 | Mean animal paw volume ± SD (Day 12, L paw, 3 mg/kg): 1.41 mL | Mean animal paw volume ± SD (Day 12, L paw, 10 mg/kg): 1.41 mL | Mean animal paw volume ± SD (Day 12, L paw, 30 mg/kg): 1.33 mL | Mean animal paw volume ± SD (Day 12, R paw, 3 mg/kg): 1.40 mL | Mean animal paw volume ± SD (Day 12, R paw, 10 mg/kg): 1.41 mL | Mean animal paw volume ± SD (Day 12, R paw, 30 mg/kg): 1.36 mL | Detailed Clinical Scores, left forelimb (Day 12, 3 mg/kg, CIA rats): 0 | Detailed Clinical Scores, left hind limb (Day 12, 3 mg/kg, CIA rats): 0 (7×) and 1 | Detailed Clinical Scores, right forelimb (Day 12, 3 mg/kg, CIA rats): 0 (6×) and 1 (2×) | Detailed Clinical Scores, right hind limb (Day 12, 3 mg/kg, CIA rats): 0 | Detailed Clinical Scores, score (Day 12, 3 mg/kg, CIA rats): 0 (5×) and 1 (3×) | Detailed Clinical Scores, left forelimb (Day 12, 10 mg/kg, CIA rats): 0 | Detailed Clinical Scores, left hind limb (Day 12, 10 mg/kg, CIA rats): 1 (2×) and 0 (6×) | Detailed Clinical Scores, right forelimb (Day 12, 10 mg/kg, CIA rats): 0 | Detailed Clinical Scores, right hind limb (Day 12, 10 mg/kg, CIA rats): 0 (7×) and 2 | Detailed Clinical Scores, score (Day 12, 10 mg/kg, CIA rats): 1 (2×) and 0 (5×) and 2 | Detailed Clinical Scores, left forelimb (Day 12, 30 mg/kg, CIA rats): 0 | Detailed Clinical Scores, left hind limb (Day 12, 30 mg/kg, CIA rats): 0 | Detailed Clinical Scores, right forelimb (Day 12, 30 mg/kg, CIA rats): 0 | Detailed Clinical Scores, right hind limb (Day 12, 30 mg/kg, CIA rats): 1 and 0 (7×) | Detailed Clinical Scores, score (Day 12, 30 mg/kg, CIA rats): 1 and 0 (7×) | Average detailed clinical score, left forelimb (Day 12, CIA rats, 3 mg/kg): 0.00 | Average detailed clinical score, left hind limb (Day 12, CIA rats, 3 mg/kg): 0.13 | Average detailed clinical score, right forelimb (Day 12, CIA rats, 3 mg/kg): 0.25 | Average detailed clinical score, right hind limb (Day 12, CIA rats, 3 mg/kg): 0.00 | Average detailed clinical score, score (Day 12, CIA rats, 3 mg/kg): 0.38 | Mean overall clinical score ± SD (Day 12, CIA rats, 3 mg/kg): 0 ± 1 | Overall clinical score (Day 12, CIA rats, 3 mg/kg): 0 (5×) and 1 (3×) | Average detailed clinical score, left forelimb (Day 12, CIA rats, 10 mg/kg): 0.00 | Average detailed clinical score, left hind limb (Day 12, CIA rats, 10 mg/kg): 0.25 | Average detailed clinical score, right forelimb (Day 12, CIA rats, 10 mg/kg): 0.00
